These are literature values, as cited in patent US9255091B2, “Benzothiazole-based pyridinium compounds” (The University of Montana, priority 2011, dated 2016).

The target of the data set is AChE P-site (Homo sapiens (Human), UniProt P22303). The note with it: binds selectively to the AChE P-site; read-out: equilibrium dissociation constant.
AChE P-site, sequence (P22303 32-614 limits assumed): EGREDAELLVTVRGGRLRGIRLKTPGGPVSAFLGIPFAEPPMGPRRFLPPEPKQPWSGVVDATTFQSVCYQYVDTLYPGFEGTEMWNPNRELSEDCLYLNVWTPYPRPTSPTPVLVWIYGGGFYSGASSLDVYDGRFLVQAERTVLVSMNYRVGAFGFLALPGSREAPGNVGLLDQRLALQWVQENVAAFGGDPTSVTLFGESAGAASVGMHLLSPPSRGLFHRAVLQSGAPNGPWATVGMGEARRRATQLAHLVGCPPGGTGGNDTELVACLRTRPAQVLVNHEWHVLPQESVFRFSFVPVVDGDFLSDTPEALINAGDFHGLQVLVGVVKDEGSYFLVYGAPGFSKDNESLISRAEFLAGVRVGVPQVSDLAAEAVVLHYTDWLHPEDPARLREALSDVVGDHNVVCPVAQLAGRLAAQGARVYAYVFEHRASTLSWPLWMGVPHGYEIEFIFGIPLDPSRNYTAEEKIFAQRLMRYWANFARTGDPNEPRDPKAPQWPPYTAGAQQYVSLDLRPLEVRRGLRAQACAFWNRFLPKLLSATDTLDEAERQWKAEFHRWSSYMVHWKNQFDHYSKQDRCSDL

On to `Cc1ccc2c(c1)sc(-c1ccc(N(C)C)cc1)[n+]2C` [Thioflavin T], for which the Kd was 1000 nM.
